This note sets out measurements from the supplement of paper PMC10307832.

Holding throughout (assay): relative viability (nuclei count vs DMSO), 5 days (fraction); higher = more cells survive
Compound in assay [1]: CC1=C(N=C(N=C1N)[C@H](CC(=O)N)NC[C@@H](C(=O)N)N)C(=O)N[C@@H]([C@H](C2=CN=CN2)OC3C(C(C(C(O3)CO)O)O)OC4C(C(C(C(O4)CO)O)OC(=O)N)O)C(=O)N[C@H](C)[C@H]([C@H](C)C(=O)N[C@@H]([C@@H](C)O)C(=O)NCCC5=NC(=CS5)C6=NC(=CS6)C(=O)NCCC[S+](C)C)O [Bleomycin] + COc1cc2c(Oc3ccc(NC(=O)C4(C(=O)Nc5ccc(F)cc5)CC4)cc3F)ccnc2cc1OCCCN1CCOCC1 [Foretinib] (partner 0.25 µM)
To be noted: main component drawn. Summed up:
(§1)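 Relative viability equals treated-well nuclei counts divided by vehicle-well nuclei counts. Counts came from 4× images of lung cancer cell lines grown in 1536-well plates for 5 days after pin-tool dosing on the day after seeding. Dosing used one drug alone or a fixed anchor-drug dose plus five library-drug doses (not always all listed) in √10 steps, and values are medians of duplicate plates.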

Compound in assay [2]: COc1cc([C@@H]2c3cc4c(cc3[C@@H](O[C@@H]3O[C@@H]5CO[C@@H](C)O[C@H]5[C@H](O)[C@H]3O)[C@H]3COC(=O)[C@H]23)OCO4)cc(OC)c1O [Etoposide] + Cc1cc(Nc2cc(N3CCN(C)CC3)nc(Sc3ccc(NC(=O)C4CC4)cc3)n2)n[nH]1 [Tozasertib] (partner 0.1 µM)
Summed up: as §1

Compound in assay [3]: COc1cc([C@@H]2c3cc4c(cc3[C@@H](O[C@@H]3O[C@@H]5CO[C@@H](C)O[C@H]5[C@H](O)[C@H]3O)[C@H]3COC(=O)[C@H]23)OCO4)cc(OC)c1O [Etoposide] + O=C(c1cc(Cc2n[nH]c(=O)c3ccccc23)ccc1F)N1CCN(C(=O)C2CC2)CC1 [Olaparib] (partner 8 µM)
Summed up:
as §1

Compound in assay [4]: CC1=C(N=C(N=C1N)[C@H](CC(=O)N)NC[C@@H](C(=O)N)N)C(=O)N[C@@H]([C@H](C2=CN=CN2)OC3C(C(C(C(O3)CO)O)O)OC4C(C(C(C(O4)CO)O)OC(=O)N)O)C(=O)N[C@H](C)[C@H]([C@H](C)C(=O)N[C@@H]([C@@H](C)O)C(=O)NCCC5=NC(=CS5)C6=NC(=CS6)C(=O)NCCC[S+](C)C)O [Bleomycin] + CS(=O)(=O)N1CCN(Cc2cc3nc(-c4cccc5[nH]ncc45)nc(N4CCOCC4)c3s2)CC1 [Pictilisib] (partner 1 µM)
The note with it: main component drawn. In outline:
as §1

For NCI-H2170, the relative viability in assay [1] (first compound 0.01 µM) is 0.992; in assay [1] (first compound 0.03162 µM), 0.98; in assay [1] (first compound 0.1 µM), 0.736; in assay [1] (first compound 0.3162 µM), 0.855; in assay [1] (first compound 1 µM), 0.829; in assay [2] (first compound 0.01 µM), 0.634. In addition, the relative viability is 0.778 in assay [2] (first compound 0.03162 µM); 0.522 in assay [2] (first compound 0.1 µM); 0.593 in assay [2] (first compound 0.3162 µM); 0.526 in assay [2] (first compound 1 µM); 0.581 in assay [3] (first compound 0.01 µM); 0.621 in assay [3] (first compound 0.03162 µM). Further, the relative viability in assay [3] (first compound 0.3162 µM) stood at 0.514; in assay [3] (first compound 1 µM) it was 0.29; in assay [4] (first compound 0.01 µM), 0.376; in assay [4] (first compound 0.03162 µM), 0.304; in assay [4] (first compound 0.1 µM) it was 0.297; in assay [4] (first compound 0.3162 µM), 0.256. Besides, in assay [4] (first compound 1 µM), the relative viability is 0.262.
Turning to NCI-H1395, the relative viability in assay [1] (first compound 0.01 µM) came out at 0.886; in assay [1] (first compound 0.03162 µM), 0.932; in assay [1] (first compound 0.1 µM), 0.827; in assay [1] (first compound 0.3162 µM), 0.672; in assay [1] (first compound 1 µM), 0.497; in assay [2] (first compound 0.01 µM), 0.616. Besides, the relative viability in assay [2] (first compound 0.03162 µM) is 0.758; in assay [2] (first compound 0.1 µM), 0.665; in assay [2] (first compound 0.3162 µM), 0.74; in assay [2] (first compound 1 µM) it was 0.592; in assay [3] (first compound 0.01 µM), 0.444; in assay [3] (first compound 0.03162 µM), 0.453. The relative viability in assay [3] (first compound 0.1 µM) was 0.458; in assay [3] (first compound 0.3162 µM), 0.479; in assay [3] (first compound 1 µM), 0.397; in assay [4] (first compound 0.01 µM), 0.579; in assay [4] (first compound 0.03162 µM) it was 0.6; in assay [4] (first compound 0.1 µM) it was 0.476. For the same cell line, the relative viability in assay [4] (first compound 0.3162 µM) worked out at 0.686; in assay [4] (first compound 1 µM), 0.489.
Regarding NCI-H358, the relative viability in assay [1] (first compound 0.01 µM) came to 0.606; in assay [1] (first compound 0.03162 µM), 0.591; in assay [1] (first compound 0.1 µM), 0.556; in assay [1] (first compound 0.3162 µM), 0.351; in assay [1] (first compound 1 µM) it was 0.254; in assay [2] (first compound 0.01 µM) it was 0.112. The relative viability stood at 0.107 in assay [2] (first compound 0.03162 µM); 0.107 in assay [2] (first compound 0.1 µM); 0.0887 in assay [2] (first compound 0.3162 µM); 0.0917 in assay [2] (first compound 1 µM); 0.692 in assay [3] (first compound 0.01 µM); 0.519 in assay [3] (first compound 0.03162 µM). Besides, the relative viability came to 0.521 in assay [3] (first compound 0.1 µM); 0.104 in assay [3] (first compound 0.3162 µM); 0.0937 in assay [3] (first compound 1 µM); 0.349 in assay [4] (first compound 0.01 µM); 0.355 in assay [4] (first compound 0.03162 µM); 0.34 in assay [4] (first compound 0.1 µM). The relative viability in assay [4] (first compound 0.3162 µM) turned out to be 0.233; in assay [4] (first compound 1 µM), 0.228.
In the case of PC-14, the relative viability amounted to 0.773 in assay [1] (first compound 0.01 µM); 0.566 in assay [1] (first compound 0.03162 µM); 0.447 in assay [1] (first compound 0.1 µM); 0.137 in assay [1] (first compound 0.3162 µM); 0.0938 in assay [1] (first compound 1 µM); 0.595 in assay [2] (first compound 0.01 µM). Also, the relative viability is 0.536 in assay [2] (first compound 0.03162 µM); 0.754 in assay [2] (first compound 0.1 µM); 0.496 in assay [2] (first compound 0.3162 µM); 0.213 in assay [2] (first compound 1 µM); 0.239 in assay [3] (first compound 0.01 µM); 0.204 in assay [3] (first compound 0.03162 µM). In addition, the relative viability in assay [3] (first compound 0.1 µM) was found to be 0.31; in assay [3] (first compound 0.3162 µM) it was 0.135; in assay [3] (first compound 1 µM) it was 0.123; in assay [4] (first compound 0.01 µM) it was 0.369; in assay [4] (first compound 0.03162 µM) it was 0.259; in assay [4] (first compound 0.1 µM), 0.159. For the same cell line, the relative viability in assay [4] (first compound 0.3162 µM) is 0.0359; in assay [4] (first compound 1 µM), 0.0457.
For the cell line CAL-12T, the relative viability was 0.993 in assay [1] (first compound 0.01 µM); 0.706 in assay [1] (first compound 0.03162 µM); 0.579 in assay [1] (first compound 0.1 µM); 0.199 in assay [1] (first compound 0.3162 µM); 0.174 in assay [1] (first compound 1 µM); 0.256 in assay [2] (first compound 0.01 µM). For the same cell line, the relative viability was 0.297 in assay [2] (first compound 0.03162 µM); 0.408 in assay [2] (first compound 0.1 µM); 0.264 in assay [2] (first compound 0.3162 µM); 0.28 in assay [2] (first compound 1 µM); 0.716 in assay [3] (first compound 0.01 µM); 0.623 in assay [3] (first compound 0.03162 µM). For the same cell line, the relative viability worked out at 0.693 in assay [3] (first compound 0.1 µM); 0.368 in assay [3] (first compound 0.3162 µM); 0.213 in assay [3] (first compound 1 µM); 0.588 in assay [4] (first compound 0.03162 µM); 0.394 in assay [4] (first compound 0.1 µM); 0.207 in assay [4] (first compound 0.3162 µM). Further, the relative viability in assay [4] (first compound 1 µM) was determined as 0.236.
